Literature values, collected in patent US8808735B2, “Fast wet-massing method for the preparation of calcium-containing compositions” (Takeda Nycomed AS, priority 2005, dated 2014).

Test system: fracture rate
Conditions: annual injections of 150.000-300.000 IU

In the case of vitamin D, the overall fracture rate is given as “significant reduction”.
